{"source": "paper PMC6078345", "about": "“Location and functions of Inebriated in the Drosophila eye” (Biology Open, 2018)", "biological_target": "T1, Ine-P1 (Inebriated long isoform; Ine-P1::GFP, Ine-P1-EGFP) (Drosophila melanogaster, UniProt Q9VR07)", "T1 construct": "full-length long isoform, GFP/EGFP fusion, cRNA in Xenopus laevis oocytes; 943 aa", "T1 sequence (Q9VR07 1-943)": "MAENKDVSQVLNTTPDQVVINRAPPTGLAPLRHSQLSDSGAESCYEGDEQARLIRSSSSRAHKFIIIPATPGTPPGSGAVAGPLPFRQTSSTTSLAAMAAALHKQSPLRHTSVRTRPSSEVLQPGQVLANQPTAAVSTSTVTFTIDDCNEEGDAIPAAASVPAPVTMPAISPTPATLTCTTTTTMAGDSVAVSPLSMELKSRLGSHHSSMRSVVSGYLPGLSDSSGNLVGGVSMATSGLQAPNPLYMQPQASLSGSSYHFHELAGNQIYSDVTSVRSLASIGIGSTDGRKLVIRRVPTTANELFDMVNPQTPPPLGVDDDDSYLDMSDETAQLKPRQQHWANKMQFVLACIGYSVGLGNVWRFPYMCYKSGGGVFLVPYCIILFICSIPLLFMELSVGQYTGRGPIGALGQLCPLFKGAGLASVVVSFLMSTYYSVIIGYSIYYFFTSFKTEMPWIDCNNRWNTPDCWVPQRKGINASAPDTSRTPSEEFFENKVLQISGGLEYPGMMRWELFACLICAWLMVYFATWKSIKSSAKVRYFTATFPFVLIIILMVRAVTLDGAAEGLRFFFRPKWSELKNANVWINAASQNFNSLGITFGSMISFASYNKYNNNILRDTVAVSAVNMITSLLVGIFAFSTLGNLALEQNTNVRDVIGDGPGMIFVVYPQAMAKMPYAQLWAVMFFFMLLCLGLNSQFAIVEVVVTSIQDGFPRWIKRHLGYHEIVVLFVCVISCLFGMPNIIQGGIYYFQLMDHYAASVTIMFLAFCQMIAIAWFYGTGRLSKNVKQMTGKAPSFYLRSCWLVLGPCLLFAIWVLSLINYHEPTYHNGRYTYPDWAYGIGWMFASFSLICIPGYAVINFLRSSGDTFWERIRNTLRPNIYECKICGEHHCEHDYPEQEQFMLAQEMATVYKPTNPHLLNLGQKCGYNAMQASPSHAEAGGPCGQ", "assay": "voltage-clamp current in Xenopus oocytes", "assay_type": "cell-based", "details": "normal frog Ringer, -100 mV; dose-dependent current, 7 to 100 mM; few oocytes; transport only suggested", "data": [{"smiles": "NCC(=O)O", "note": "[glycine]", "values": [{"measurement": "voltage-clamp current in Xenopus oocytes", "value": "glycine on Ine-P1-EGFP transfected oocytes revealed an obvious dose-dependent signal"}]}]}
